Common to all, as to assay type: cell-based
The test system of assay [1] is N87 (gastric cancer) cells. The assay is described as follows: In vitro cell assay (MTS cell viability), N87. The settings on record: 96 h, free compounds (natural products and synthetic analogs); cell viability 96 hours after treatment. The essentials: (§1)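 Cells seeded 24 h, then treated with antibody-drug conjugates or free drug, 3-fold serial dilutions at 10 concentrations in duplicate. Viability by MTS at 96 h as percent of untreated control; IC50 from four-parameter logistic fit.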

Assay [2] concerns BT474 (breast cancer) cells. Put plainly: In vitro cell assay (MTS cell viability), BT474. The settings on record: Homo sapiens, BT-474; free compounds (natural products and synthetic analogs); cell viability 96 hours after treatment. As to the method: Target expressing (BT474 (breast cancer), N87 (gastric cancer), HCC1954 (breast cancer), MDA-MB-361-DYT2 (breast cancer)) or non-expressing (MDA-MB-468) cells were seeded in 96-well cell culture plates for 24 hours before treatment. Cells were treated with 3-fold serially diluted antibody-drug conjugates or free compounds (i.e., no antibody conjugated to the drug) in duplicate at 10 concentrations. Cell viability was determined by CellTiter 96® AQueous One Solution Cell Proliferation MTS Assay (Promega, Madison Wis.) 96 hours after treatment. Relative cell viability was determined as percentage of untreated control. IC50 values were calculated using a four parameter logistic model #203 with XLfit v4.2 (IDBS, Guildford, Surry, UK). The potency ranged upward from 0.0002 nm. Similar procedures and techniques were employed.

For assay [3], the system named is MDA-MB-361-DYT2 (breast cancer) cells. Put plainly: In vitro cell assay (MTS cell viability), MDA-MB-361-DYT2. The settings on record: 96 h, free compounds (natural products and synthetic analogs); cell viability 96 hours after treatment. The essentials:
as §1

Each structure is given as a SMILES string.

For orientation: IC50 means the midpoint of a concentration-inhibition curve. In the case of `CC(=O)O[C@@H](C)/C=C\C(=O)N[C@@H]1C[C@H](C)[C@H](C/C=C(C)/C=C/[C@H]2O[C@H](CC(=O)N3CCCCC3)C[C@@]3(CO3)[C@@H]2O)O[C@@H]1C` [#B72, (2S,3Z)-5-({(2R,3R,5S,6S)-6-[(2E,4E)-5-{(3R,4R,5R,7S)-4-hydroxy-7-[2-oxo-2-(piperidin-1-yl)ethyl]-1,6-dioxaspiro[2.5]oct-5-yl}-3-methylpenta-2,4-dien-1-yl]-2,5-dimethyltetrahydro-2H-pyran-3-yl}amino)-5-oxopent-3-en-2-yl acetate], the IC50 in assay [1] was 0.481 nM; in assay [2], 0.607 nM; in assay [3] it was 1.16 nM.

Take `CC(=O)O[C@@H](C)/C=C\C(=O)N[C@@H]1C[C@H](C)[C@H](C/C=C(C)/C=C/[C@@H]2C[C@]3(CO3)C[C@@H](CC(=O)NC(C)(C)C(=O)O)O2)O[C@@H]1C` [#B79, N-{[(3S,5S,7S)-7-{(1E,3E)-5-[(2S,3S,5R,6R)-5-{[(2Z,4S)-4-(acetyloxy)pent-2-enoyl]amino}-3,6-dimethyltetrahydro-2H-pyran-2-yl]-3-methylpenta-1,3-dien-1-yl}-1,6-dioxaspiro[2.5]oct-5-yl]acetyl}-2-methylalanine]: the values for the IC50 in assay [1], in assay [2] and in assay [3] were 0.423 nM, 0.723 nM and 1.31 nM, respectively.

With `CSCCN(C)C(=O)C[C@@H]1C[C@@]2(CO2)[C@H](O)[C@@H](/C=C/C(C)=C/C[C@@H]2O[C@H](C)[C@H](NC(=O)/C=C\[C@H](C)OC(C)=O)C[C@@H]2C)O1` [#B82, (2S,3Z)-5-{[(2R,3R,5S,6S)-6-{(2E,4E)-5-[(3R,4R,5R,7S)-4-hydroxy-7-(2-{methyl[2-(methylsulfanyl)ethyl]amino}-2-oxoethyl)-1,6-dioxaspiro[2.5]oct-5-yl]-3-methylpenta-2,4-dien-1-yl}-2,5-dimethyltetrahydro-2H-pyran-3-yl]amino}-5-oxopent-3-en-2-yl acetate], the figures for the IC50 in assay [1], in assay [2] and in assay [3] were 0.12 nM, 0.288 nM and 0.251 nM, respectively.

On to `CNc1cccc(CNC(=O)C[C@@H]2C[C@@]3(CO3)[C@H](O)[C@@H](/C=C/C(C)=C/C[C@@H]3O[C@H](C)[C@H](NC(=O)/C=C\[C@H](C)OC(C)=O)C[C@@H]3C)O2)c1` [#B83, (2S,3Z)-5-{[(2R,3R,5S,6S)-6-{(2E,4E)-5-[(3R,4R,5R,7S)-4-hydroxy-7-(2-{[3-(methylamino)benzyl]amino}-2-oxoethyl)-1,6-dioxaspiro[2.5]oct-5-yl]-3-methylpenta-2,4-dien-1-yl}-2,5-dimethyltetrahydro-2H-pyran-3-yl]amino}-5-oxopent-3-en-2-yl acetate], for which the values for the half-inhibitory concentration (IC50) in assay [1], in assay [2] and in assay [3] were 1.05 nM, 1.45 nM and 2.59 nM, respectively.

As to `CC(=O)O[C@@H](C)/C=C\C(=O)N[C@@H]1C[C@H](C)[C@H](C/C=C(C)/C=C/[C@H]2O[C@H](CC(=O)NCc3ccc(N)cc3F)C[C@@]3(CO3)[C@@H]2O)O[C@@H]1C` [#B84, (2S,3Z)-5-{[(2R,3R,5S,6S)-6-{(2E,4E)-5-[(3R,4R,5R,7S)-7-{2-[(4-amino-2-fluorobenzyl)amino]-2-oxoethyl}-4-hydroxy-1,6-dioxaspiro[2.5]oct-5-yl]-3-methylpenta-2,4-dien-1-yl}-2,5-dimethyltetrahydro-2H-pyran-3-yl]amino}-5-oxopent-3-en-2-yl acetate], the 50% inhibitory concentration (IC50) stood at 2.54 nM in assay [1], 2.53 nM in assay [2] and 8.27 nM in assay [3].

In the case of `CC(=O)O[C@@H](C)/C=C\C(=O)N[C@@H]1C[C@H](C)[C@H](C/C=C(C)/C=C/[C@H]2O[C@H](CC(=O)NCc3ccc(N)c(F)c3)C[C@@]3(CO3)[C@@H]2O)O[C@@H]1C` [#B85, (2S,3Z)-5-{[(2R,3R,5S,6S)-6-{(2E,4E)-5-[(3R,4R,5R,7S)-7-{2-[(4-amino-3-fluorobenzyl)amino]-2-oxoethyl}-4-hydroxy-1,6-dioxaspiro[2.5]oct-5-yl]-3-methylpenta-2,4-dien-1-yl}-2,5-dimethyltetrahydro-2H-pyran-3-yl]amino}-5-oxopent-3-en-2-yl acetate], the figures for the IC50 in assay [1], in assay [2] and in assay [3] were 1.56 nM, 1.47 nM and 5.5 nM, respectively.

Take `CC(=O)O[C@@H](C)/C=C\C(=O)N[C@@H]1C[C@H](C)[C@H](C/C=C(C)/C=C/[C@H]2O[C@H](CC(=O)NCc3ccc(N)c(C(F)(F)F)c3)C[C@@]3(CO3)[C@@H]2O)O[C@@H]1C` [#B88, (2S,3Z)-5-{[(2R,3R,5S,6S)-6-{(2E,4E)-5-[(3R,4R,5R,7S)-7-(2-{[4-amino-3-(trifluoromethyl)benzyl]amino}-2-oxoethyl)-4-hydroxy-1,6-dioxaspiro[2.5]oct-5-yl]-3-methylpenta-2,4-dien-1-yl}-2,5-dimethyltetrahydro-2H-pyran-3-yl]amino}-5-oxopent-3-en-2-yl acetate]: the half-inhibitory concentration (IC50) in assay [1] was found to be 0.73 nM; in assay [2], 1.8 nM; in assay [3], 2.96 nM.

On to `CC(=O)O[C@@H](C)/C=C\C(=O)N[C@@H]1C[C@H](C)[C@H](C/C=C(C)/C=C/[C@H]2O[C@H](CC(=O)NCc3cccc(N)c3)C[C@@]3(CO3)[C@@H]2O)O[C@@H]1C` [#B89, (2S,3Z)-5-{[(2R,3R,5S,6S)-6-{(2E,4E)-5-[(3R,4R,5R,7S)-7-{2-[(3-aminobenzyl)amino]-2-oxoethyl}-4-hydroxy-1,6-dioxaspiro[2.5]oct-5-yl]-3-methylpenta-2,4-dien-1-yl}-2,5-dimethyltetrahydro-2H-pyran-3-yl]amino}-5-oxopent-3-en-2-yl acetate], for which the IC50 in assay [1] is 1.91 nM; in assay [2] it was 3.56 nM; in assay [3], 7.99 nM.

Consider `CC(=O)O[C@@H](C)/C=C\C(=O)N[C@@H]1C[C@H](C)[C@H](C/C=C(C)/C=C/[C@H]2O[C@H](CC(=O)N(C)Cc3ccc(S(=O)(=O)N(C)C)cc3)C[C@@]3(CO3)[C@@H]2O)O[C@@H]1C` [#B91, (2S,3Z)-5-{[(2R,3R,5S,6S)-6-{(2E,4E)-5-[(3R,4R,5R,7S)-7-(2-{[4-(dimethylsulfamoyl)benzyl](methyl)amino}-2-oxoethyl)-4-hydroxy-1,6-dioxaspiro[2.5]oct-5-yl]-3-methylpenta-2,4-dien-1-yl}-2,5-dimethyltetrahydro-2H-pyran-3-yl]amino}-5-oxopent-3-en-2-yl acetate], for which the results for the IC50 in assay [1], in assay [2] and in assay [3] were 0.783 nM, 3.02 nM and 3.78 nM, respectively.

Take `CC(=O)O[C@@H](C)/C=C\C(=O)N[C@@H]1C[C@H](C)[C@H](C/C=C(C)/C=C/[C@H]2O[C@H](CC(=O)NCc3cc(N)ccc3F)C[C@@]3(CO3)[C@@H]2O)O[C@@H]1C` [#B92, (2S,3Z)-5-{[(2R,3R,5S,6S)-6-{(2E,4E)-5-[(3R,4R,5R,7S)-7-{2-[(5-amino-2-fluorobenzyl)amino]-2-oxoethyl}-4-hydroxy-1,6-dioxaspiro[2.5]oct-5-yl]-3-methylpenta-2,4-dien-1-yl}-2,5-dimethyltetrahydro-2H-pyran-3-yl]amino}-5-oxopent-3-en-2-yl acetate]: the half-inhibitory concentration (IC50) in assay [1] was found to be 1.5 nM; in assay [2], 2.28 nM; in assay [3], 6.18 nM.

Source of the values: US9504669B2, “Spliceostatin analogs and methods for their preparation” (PFIZER INC., priority 2012, dated 2016).
